Species on record: Rattus norvegicus
Assay: DrugMatrix - Regimen: Daily Repeat
Assay type: toxicity, organism-based, Sprague-Dawley
Set-up: regimen Daily Repeat, gender Male, age 6-8 weeks
Details: in vivo, po, route oral GAVAGE, vehicle .5 % CMC; for BASOPHIL / EOSINOPHIL / ERYTHROCYTE COUNT / HEMATOCRIT / HEMOGLOBIN / LEUKOCYTE COUNT / LYMPHOCYTE / MEAN CORPUSCULAR HEMOGLOBIN / MEAN CORPUSCULAR HEMOGLOBIN CONCENTRATION / MEAN CORPUSCULAR VOLUME / MONOCYTE / NEUTROPHIL / PLATELET COUNT: tissue Blood; for ALANINE AMINOTRANSFERASE / ALBUMIN / ALKALINE PHOSPHATASE / ASPARTATE AMINOTRANSFERASE / BLOOD UREA NITROGEN / CHLORIDE / CHOLESTEROL / CREATINE PHOSPHOKINASE / CREATININE / GLUCOSE / PHOSPHORUS / POTASSIUM / SODIUM / TOTAL BILIRUBIN / TOTAL PROTEIN: tissue Plasma
[1] = 0 mg/kg, 72 h, dose level Control, time 3 day
[2] = 0 mg/kg, 120 h, dose level Control, time 5 day
[3] = 32 mg/kg, 72 h, dose level Low, time 3 day
[4] = 32 mg/kg, 120 h, dose level Low, time 5 day

Compound: CC[C@H]1OC(=O)[C@H](C)[C@@H](O[C@H]2C[C@@](C)(OC)[C@@H](O)[C@H](C)O2)[C@H](C)[C@@H](O[C@@H]2O[C@H](C)C[C@H](N(C)C)[C@H]2O)[C@](C)(O)C[C@@H](C)/C(=N\OCOCCOC)[C@H](C)[C@@H](O)[C@]1(C)O [ROXITHROMYCIN]
- BASOPHIL [1]: 1.52%
- EOSINOPHIL [1]: 0.98%
- ERYTHROCYTE COUNT [1]: 6.96 x10E6/uL
- HEMATOCRIT [1]: 44.65%
- HEMOGLOBIN [1]: 13.62 G/DL
- LEUKOCYTE COUNT [1]: 9.83 x10E3/uL
- LYMPHOCYTE [1]: 76.48%
- MEAN CORPUSCULAR HEMOGLOBIN [1]: 19.57 pg
- MEAN CORPUSCULAR HEMOGLOBIN CONCENTRATION [1]: 30.47 G/DL
- MEAN CORPUSCULAR VOLUME [1]: 64.22 fL
- MONOCYTE [1]: 2.13%
- NEUTROPHIL [1]: 18.6%
- PLATELET COUNT [1]: 1217.17 x10E3/uL
- ALANINE AMINOTRANSFERASE [1]: 41 u/L
- ALBUMIN [1]: 3.77 G/DL
- ALKALINE PHOSPHATASE [1]: 411.83 u/L
- ASPARTATE AMINOTRANSFERASE [1]: 62.83 u/L
- BLOOD UREA NITROGEN [1]: 15.17 mg/dL
- CHLORIDE [1]: 104.33 MEQ/L
- CHOLESTEROL [1]: 71.17 mg/dL
- CREATINE PHOSPHOKINASE [1]: 123.5 u/L
- CREATININE [1]: 0.55 mg/dL
- GLUCOSE [1]: 182.67 mg/dL
- PHOSPHORUS [1]: 11.23 mg/dL
- POTASSIUM [1]: 7.03 MEQ/L
- SODIUM [1]: 148 MEQ/L
- TOTAL BILIRUBIN [1]: 0.57 mg/dL
- TOTAL PROTEIN [1]: 6.85 G/DL
- BASOPHIL [2]: 1.35%
- EOSINOPHIL [2]: 0.43%
- ERYTHROCYTE COUNT [2]: 6.96 x10E6/uL
- HEMATOCRIT [2]: 44.35%
- HEMOGLOBIN [2]: 13.98 G/DL
- LEUKOCYTE COUNT [2]: 9.45 x10E3/uL
- LYMPHOCYTE [2]: 80.83%
- MEAN CORPUSCULAR HEMOGLOBIN [2]: 20.1 pg
- MEAN CORPUSCULAR HEMOGLOBIN CONCENTRATION [2]: 31.52 G/DL
- MEAN CORPUSCULAR VOLUME [2]: 63.72 fL
- MONOCYTE [2]: 2.37%
- NEUTROPHIL [2]: 14.05%
- PLATELET COUNT [2]: 1298 x10E3/uL
- ALANINE AMINOTRANSFERASE [2]: 42.17 u/L
- ALBUMIN [2]: 3.77 G/DL
- ALKALINE PHOSPHATASE [2]: 419 u/L
- ASPARTATE AMINOTRANSFERASE [2]: 66.67 u/L
- BLOOD UREA NITROGEN [2]: 16.67 mg/dL
- CHLORIDE [2]: 103.17 MEQ/L
- CHOLESTEROL [2]: 66.33 mg/dL
- CREATINE PHOSPHOKINASE [2]: 148.33 u/L
- CREATININE [2]: 0.58 mg/dL
- GLUCOSE [2]: 196.83 mg/dL
- PHOSPHORUS [2]: 11.8 mg/dL
- POTASSIUM [2]: 6.47 MEQ/L
- SODIUM [2]: 148.33 MEQ/L
- TOTAL BILIRUBIN [2]: 0.53 mg/dL
- TOTAL PROTEIN [2]: 6.77 G/DL
- BASOPHIL [3]: 1.33%
- EOSINOPHIL [3]: 0.27%
- ERYTHROCYTE COUNT [3]: 7.39 x10E6/uL
- HEMATOCRIT [3]: 47.23%
- HEMOGLOBIN [3]: 14.73 G/DL
- LEUKOCYTE COUNT [3]: 12.3 x10E3/uL
- LYMPHOCYTE [3]: 88.63%
- MEAN CORPUSCULAR HEMOGLOBIN [3]: 19.9 pg
- MEAN CORPUSCULAR HEMOGLOBIN CONCENTRATION [3]: 31.13 G/DL
- MEAN CORPUSCULAR VOLUME [3]: 63.97 fL
- MONOCYTE [3]: 1.7%
- NEUTROPHIL [3]: 7.6%
- PLATELET COUNT [3]: 1462 x10E3/uL
- ALANINE AMINOTRANSFERASE [3]: 37.67 u/L
- ALBUMIN [3]: 3.7 G/DL
- ALKALINE PHOSPHATASE [3]: 340.33 u/L
- ASPARTATE AMINOTRANSFERASE [3]: 58.33 u/L
- BLOOD UREA NITROGEN [3]: 12.33 mg/dL
- CHLORIDE [3]: 104.67 MEQ/L
- CHOLESTEROL [3]: 59.67 mg/dL
- CREATINE PHOSPHOKINASE [3]: 128 u/L
- CREATININE [3]: 0.57 mg/dL
- GLUCOSE [3]: 224 mg/dL
- PHOSPHORUS [3]: 13.23 mg/dL
- POTASSIUM [3]: 6.93 MEQ/L
- SODIUM [3]: 148.67 MEQ/L
- TOTAL BILIRUBIN [3]: 0.4 mg/dL
- TOTAL PROTEIN [3]: 6.7 G/DL
- BASOPHIL [4]: 1.4%
- EOSINOPHIL [4]: 0.3%
- ERYTHROCYTE COUNT [4]: 7.37 x10E6/uL
- HEMATOCRIT [4]: 44.93%
- HEMOGLOBIN [4]: 14.13 G/DL
- LEUKOCYTE COUNT [4]: 11.7 x10E3/uL
- LYMPHOCYTE [4]: 81.47%
- MEAN CORPUSCULAR HEMOGLOBIN [4]: 19.27 pg
- MEAN CORPUSCULAR HEMOGLOBIN CONCENTRATION [4]: 31.5 G/DL
- MEAN CORPUSCULAR VOLUME [4]: 61.2 fL
- MONOCYTE [4]: 2.4%
- NEUTROPHIL [4]: 13.53%
- PLATELET COUNT [4]: 1353.33 x10E3/uL
- ALANINE AMINOTRANSFERASE [4]: 35.67 u/L
- ALBUMIN [4]: 3.57 G/DL
- ALKALINE PHOSPHATASE [4]: 391.67 u/L
- ASPARTATE AMINOTRANSFERASE [4]: 57.67 u/L
- BLOOD UREA NITROGEN [4]: 12.67 mg/dL
- CHLORIDE [4]: 103 MEQ/L
- CHOLESTEROL [4]: 66.33 mg/dL
- CREATINE PHOSPHOKINASE [4]: 131.67 u/L
- CREATININE [4]: 0.57 mg/dL
- GLUCOSE [4]: 185.67 mg/dL
- PHOSPHORUS [4]: 12.77 mg/dL
- POTASSIUM [4]: 6.73 MEQ/L
- SODIUM [4]: 148.33 MEQ/L
- TOTAL BILIRUBIN [4]: 0.3 mg/dL
- TOTAL PROTEIN [4]: 6.23 G/DL

— ChEMBL document CHEMBL3885881, “DrugMatrix”
